Usually Kd stands for the free concentration of one partner at which half of the binding sites on the other are occupied at equilibrium, for simple one-to-one binding. A high value points to lower affinity. One may read the ΔTm as the shift of the melting midpoint relative to a reference.

Here are results for six compounds from ChEMBL document CHEMBL4311958, “Targeting multiple G-quadruplex-forming DNA sequences: Design, biophysical and biological evaluations of indolo-naphthyridine scaffold derivatives” (Eur J Med Chem, 2019).

Structures are written as SMILES. Active and inactive are the calls of the source. No cut-off for these calls is given here.

Assay [1] relates to HT-29. Nature of the assay: Cytotoxicity against human HT-29 cells assessed as cell viability at 20 uM incubated for 48 hrs by trypan blue assay relative to control. To be noted: HT-29, 48 h, read-out: Activity. In kind it is functional.
Assay [2] has as its target Quadruplex DNA. Nature of the assay: Binding affinity to 5'-biotin-TEG labeled cKIT1 G-quadruplex oligonucleotide (unknown origin) by SPR analysis. The format is nucleic-acid assay. For orientation: SPR reads the build-up and loss of mass on a sensor chip optically.
In assay [3] the test system is Quadruplex DNA. Nature of the assay: Stabilization of 5'-DABCYL/3'-FAM labeled cMYC G-quadruplex oligonucleotide (unknown origin) assessed as change in melting temperature at 5 uM preincubated for 5 mins and measured after 5 mins by FRET assay. In kind it is nucleic-acid assay.
Assay [4] has as its system Quadruplex DNA. Put plainly: Binding affinity to 5'-DABCYL/3'-FAM labeled cKIT1 G-quadruplex oligonucleotide (unknown origin) assessed as melting temperature at test compound to DNA ratio of 4:1 measured for 10 mins by circular dichroism analysis. In kind it is nucleic-acid assay.
Assay [5] relates to Quadruplex DNA. Put plainly: Stabilization of 5'-DABCYL/3'-FAM labeled KRAS G-quadruplex oligonucleotide (unknown origin) assessed as change in melting temperature at 5 uM preincubated for 5 mins and measured after 5 mins by FRET assay. The format is nucleic-acid assay.
In assay [6] the test system is Quadruplex DNA. Nature of the assay: Stabilization of 5'-DABCYL/3'-FAM labeled cKIT1 G-quadruplex oligonucleotide (unknown origin) assessed as change in melting temperature at 5 uM preincubated for 5 mins and measured after 5 mins by FRET assay. The format is nucleic-acid assay.
Assay [7] has as its system Quadruplex DNA. Nature of the assay: Stabilization of 5'-DABCYL/3'-FAM labeled BCL2 G-quadruplex oligonucleotide (unknown origin) assessed as change in melting temperature at 5 uM preincubated for 5 mins and measured after 5 mins by FRET assay. In kind it is nucleic-acid assay.
For assay [8], the system named is Quadruplex DNA. Nature of the assay: Stabilization of 5'-DABCYL/3'-FAM labeled HTS G-quadruplex oligonucleotide (unknown origin) assessed as change in melting temperature at 5 uM preincubated for 5 mins and measured after 5 mins by FRET assay. In kind it is nucleic-acid assay.
The test system of assay [9] is Quadruplex DNA. Put plainly: Competitive binding affinity to 5'-DABCYL/3'-FAM labeled cKIT1 G-quadruplex oligonucleotide (unknown origin) at 5 uM preincubated for 5 mins and measured after 5 mins in presence of ds DNA by FRET assay. The format is nucleic-acid assay.
In assay [10] the test system is A2780. Put plainly: Cytotoxicity against human A2780 cells assessed as cell viability at 20 uM incubated for 48 hrs by trypan blue assay relative to control. The format is functional. As to conditions: A2780, 48 h, read-out: Activity.
Assay [11] relates to A549. Put plainly: Cytotoxicity against human A549 cells assessed as cell viability at 20 uM incubated for 48 hrs by trypan blue assay relative to control. As to conditions: A549, 48 h, read-out: Activity. In kind it is functional.
Assay [12] addresses Quadruplex DNA. Put plainly: Binding affinity to 5'-cy5 labeled cKIT1 G-quadruplex oligonucleotide (unknown origin) by microscale thermophoresis analysis. The format is nucleic-acid assay. (In general: In MST a laser heats a spot of the sample, and binding alters the fluorescence response.)
Assay [13] has as its system Quadruplex DNA. Nature of the assay: Binding affinity to 5'-DABCYL/3'-FAM labeled cKIT1 G-quadruplex oligonucleotide (unknown origin) assessed as conformational change at test compound to DNA ratio of 4:1 measured for 10 mins by circular dichroism analysis. The format is nucleic-acid assay. Background: Circular dichroism is widely used to follow secondary structure.

For assay [14], the system named is dsDNA. Nature of the assay: Stabilization of 5'-DABCYL labeled double stranded DNA (unknown origin) assessed as change in melting temperature at 5 uM preincubated for 5 mins and measured after 5 mins by FRET assay. The format is nucleic-acid assay.

As for `COc1ccc2c(c1OC)c(=O)n1c3ccc(OCC(=O)NCCCN4CCOCC4)cc3c3ccnc2c31`, the viability at 20 µM amounted to 85% in [1], 94% in [10] and 69% in assay [11]. The Kd amounted to 510 nM in assay [2] and 300 nM in [12]. Besides, the shift in melting temperature (ΔTm) worked out at 4.9 °C in assay [3]; 0.8 °C in assay [5]; 6.3 °C in assay [6]; 3.4 °C in [7]; 4.5 °C in assay [8]; 0.1 °C in assay [14]. In assay [4], the Tm worked out at 59.9 °C. In addition, the result in assay [9] was inactive. Moreover, the outcome in assay [13] was Active.
Regarding `COc1ccc2c(c1OC)c(=O)n1c3ccccc3c3cc(C(=O)N4CCN(CCO)CC4)nc2c31`, the shift in melting temperature (ΔTm) is 0.8 °C in assay [3], 2.3 °C in assay [7] and 0.6 °C in assay [8]. Further, the deltaTm entry in assay [5], in assay [6] and in [14] was “inactive” in each case.
Take `CN(C)Cc1c(O)ccc2c1c1ccnc3c4ccccc4c(=O)n2c13`: the thermal shift (ΔTm) in [3] amounted to 3.8 °C; in [6], 5 °C; in assay [7], 1.1 °C; in assay [8] it was 3.3 °C; in assay [14] it was 0.1 °C. The deltaTm entry in assay [5] is “inactive”.
`COc1ccc2c(c1OC)c(=O)n1c3ccccc3c3cc(C(=O)N4CCN(Cc5ccccc5)CC4)nc2c31`: the deltaTm entry in assay [3], in assay [5], in assay [6], in assay [7] and in [14] was “inactive” throughout. For the same compound, the thermal shift (ΔTm) in assay [8] was 0.5 °C.
As for `CCN1CCN(C(=O)c2cc3c4ccccc4n4c(=O)c5ccccc5c(n2)c34)CC1`, the thermal shift (ΔTm) in assay [3] was found to be 1.2 °C; in assay [7], 2.3 °C; in assay [8] it was 1.5 °C; in [14] it was 0.6 °C. In addition, the deltaTm entry in assay [5] and in assay [6] was “inactive” each time.
For the compound `C=C(C)Cc1c(OCC(=O)NCC2CCCN2CC)ccc2c1c1ccnc3c4ccccc4c(=O)n2c13` (centres undefined), the ΔTm in assay [3] is 3.4 °C; in [6], 1.6 °C; in [7], 0 °C; in assay [8], 1.7 °C. Moreover, the deltaTm result in [5] and in assay [14] was “inactive” in each case.
